According to patent US7745474B2, “Imidazole derivatives for the treatment of gastrointestinal disorders” (AstraZeneca AB, priority 2005, dated 2010):

Molecular target: T1, GABAB receptor (GABABR1a/GABABR2 heterodimer) (Homo sapiens, UniProt O75899+Q9UBS5)
T1 construct: expressed in transfected cells
Assay: [35S]-GTPγS binding assay, potency of positive allosteric modulator on GABA EC50
Type: biochemical
Details: potency of the modulator: concentration required to reduce GABA's EC50 by 50%
From the text: GABABR1a and GABABR2 were cloned from human brain cDNA and subcloned into pCI-Neo (Promega) and pALTER-1 (Promega), respectively. A GABABR1a-Gαqi5 fusion protein expression vector was constructed using the pCI-Neo-GABABR1a cDNA plasmid and pLEC1-Gαqi5 (Molecular Devices, CA). In order to make the Gαqi5 pertussis toxin insensitive, Cys356 was mutated to Gly using standard PCR methodology with the primers 5′-[…]-3 (forward) and 5′-GCGGCCG […]-3′ (reverse). The Gαqi5mut cDNA was ligated into the BamnHI and NotI sites of pcDNA3.0 (Invitrogen). The GABABR1a coding sequence was amplified by PCR from pCI-Neo-GABABR1a using the primers, 5′-[…]-3′ (forward) and 5′-[…]-3′ (reverse) and subdloned into the BamHI site of pcDNA3.0-Gαqi5mut.
For generation of stable cell lines, CHO-K1 cells were grown in Nut mix F-12 (Ham) media supplemented with 10% FBS, 100 U/ml Penicillin and 100 μg/nl Streptomycin at 37° C. in a humidified CO2-incubator. […]
[^35S]-GTPγS binding assays were performed at 30° C. for 45 min in membrane buffer (100 mM NaCl, […], 1 mM EDTA, 50 mM HEPES, pH 7.4) containing 0.025 μg/μl of membrane protein (prepared from the cell lines described above) with 0.01% bovine serum albumin (fatty acid free), 10 μM GDP, 100 μM DTT and 0.53 nM [^35S]-GTPγS (Amersham-Pharmacia Biotech) in a final volume of 200 μl. Nonspecific binding was determined in the presence of 20 μM GTPγS. […]

T1 sequence (Q9UBS5 15-961 limits assumed): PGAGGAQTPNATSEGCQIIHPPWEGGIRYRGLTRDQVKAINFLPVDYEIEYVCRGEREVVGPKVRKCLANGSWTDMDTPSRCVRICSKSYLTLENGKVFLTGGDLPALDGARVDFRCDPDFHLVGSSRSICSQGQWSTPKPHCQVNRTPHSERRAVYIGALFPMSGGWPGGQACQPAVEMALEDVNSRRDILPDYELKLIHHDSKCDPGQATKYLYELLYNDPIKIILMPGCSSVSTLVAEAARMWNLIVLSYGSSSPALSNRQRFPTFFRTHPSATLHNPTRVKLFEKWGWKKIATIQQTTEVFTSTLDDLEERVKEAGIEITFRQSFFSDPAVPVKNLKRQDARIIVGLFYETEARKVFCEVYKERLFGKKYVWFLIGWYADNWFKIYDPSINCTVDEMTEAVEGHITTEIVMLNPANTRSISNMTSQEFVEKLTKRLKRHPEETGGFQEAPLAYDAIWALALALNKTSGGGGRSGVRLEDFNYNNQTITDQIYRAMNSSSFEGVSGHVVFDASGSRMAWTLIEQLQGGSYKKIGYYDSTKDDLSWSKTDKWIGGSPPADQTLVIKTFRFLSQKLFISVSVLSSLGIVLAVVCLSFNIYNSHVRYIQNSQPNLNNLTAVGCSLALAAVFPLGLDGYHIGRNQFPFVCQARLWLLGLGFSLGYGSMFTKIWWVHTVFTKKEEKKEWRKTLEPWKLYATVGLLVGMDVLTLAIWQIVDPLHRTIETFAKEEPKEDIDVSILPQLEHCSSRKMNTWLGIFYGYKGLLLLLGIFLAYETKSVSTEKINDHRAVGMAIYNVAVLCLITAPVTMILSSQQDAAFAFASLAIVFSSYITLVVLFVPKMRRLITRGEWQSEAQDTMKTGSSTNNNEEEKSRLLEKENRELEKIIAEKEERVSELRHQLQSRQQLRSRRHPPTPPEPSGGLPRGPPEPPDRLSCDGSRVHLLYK
T1 sequence (O75899 42-941): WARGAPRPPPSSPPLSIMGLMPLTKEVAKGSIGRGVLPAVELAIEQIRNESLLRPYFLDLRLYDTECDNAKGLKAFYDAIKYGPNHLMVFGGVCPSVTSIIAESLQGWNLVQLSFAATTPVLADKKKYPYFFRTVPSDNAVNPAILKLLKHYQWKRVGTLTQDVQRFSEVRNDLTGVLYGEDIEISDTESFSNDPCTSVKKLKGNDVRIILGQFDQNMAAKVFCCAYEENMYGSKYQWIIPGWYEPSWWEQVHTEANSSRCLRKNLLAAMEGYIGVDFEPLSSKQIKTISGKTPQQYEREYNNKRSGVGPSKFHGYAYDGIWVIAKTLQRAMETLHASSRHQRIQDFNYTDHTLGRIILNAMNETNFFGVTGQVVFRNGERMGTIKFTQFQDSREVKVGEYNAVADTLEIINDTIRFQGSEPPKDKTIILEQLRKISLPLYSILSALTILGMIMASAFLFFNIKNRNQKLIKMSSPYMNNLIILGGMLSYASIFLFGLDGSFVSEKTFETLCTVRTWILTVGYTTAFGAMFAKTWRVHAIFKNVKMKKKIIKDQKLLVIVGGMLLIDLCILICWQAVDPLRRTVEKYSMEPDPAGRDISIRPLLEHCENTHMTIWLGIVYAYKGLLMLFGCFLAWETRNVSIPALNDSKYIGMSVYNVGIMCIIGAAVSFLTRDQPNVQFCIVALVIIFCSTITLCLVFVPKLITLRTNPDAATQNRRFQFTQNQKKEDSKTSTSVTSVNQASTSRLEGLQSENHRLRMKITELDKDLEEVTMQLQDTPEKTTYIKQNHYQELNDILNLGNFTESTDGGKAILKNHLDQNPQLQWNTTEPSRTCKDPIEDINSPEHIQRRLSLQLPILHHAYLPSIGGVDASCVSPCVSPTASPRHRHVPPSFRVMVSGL

Compound: CN(C)c1nc(/N=C(/c2ccc(Cl)cc2)N2CCCC2)c(C(=O)OC(C)(C)C)n1-c1ccccc1 [Example 2, tert-butyl 4-{[(1Z)-(4-chlorophenyl)(pyrrolidin-1-yl)methylene]amino}-2-(dimethylamino)-1-phenyl-1H-imidazole-5-carboxylate]
- EC50: 2380 nM

Compound: CN(C)c1nc(NC(=S)C2COc3ccccc3O2)c(C(=O)OC(C)(C)C)n1-c1ccccc1 (centres unmarked) [Example 6, tert-butyl 4-[(2,3-dihydro-1,4-benzodioxin-2-ylcarbonothioyl)amino]-2-(dimethylamino)-1-phenyl-1H-imidazole-5-carboxylate]
- EC50: 2270 nM
